Test [1] concerns HCC. To be noted: adjuvant therapy after surgical resection; placebo 33%; cited from earlier work.
The test system of test [2] is HCC. As to the kind of experiment: Thalidomide as adjuvant therapy after curative resection for HCC, HCC recurrence by LHX4 expression group (Kaplan-Meier). It is filed as in vivo, human. To be noted: for HCC recurrence rate (%) / Number of HCC recurrence patients: three-year. As to the method: Samples of liver tissue were obtained from 48 patients, who suffered HCC at stage II or III (defined by American Joint Committee on Cancer, AJCC) and underwent curative resection for the HCC. All of the patients were enrolled within 4 weeks after surgery. 27 of the patients received Thalidomide 200 mg/day and the others received a placebo 200 mg/day for 12 months or until HCC recurrence.
The sample of liver tissue from each patient includes tumorous tissue and non-tumorous tissue neighboring the tumorous tissue. The respective Lhx4 proteins in the tumorous and non-tumorous tissues of each patient were detected using western blot and then quantified by ImageJ software (published by the National Institutes of Health of United States of America). The quantified results of the Lhx4 proteins in the tumorous and non-tumorous tissues were respectively normalized based on the quantified results of β-actin in the tumorous and non-tumorous tissues of the corresponding patient to obtain the (protein) expression levels of the LHX4 gene in the tumorous and non-tumorous tissues of the patient.
For each and every patient, the expression level of the LHX4 gene in the tumorous tissue (called “T” hereinafter) was divided by the expression level of the LHX4 gene in the non-tumorous tissue (called “NT” hereinafter) to obtain a T/NT ratio, which represents the decreasing magnitude of the expression level of the LHX4 gene in the tumorous tissue when compared with the non-tumorous tissue.
In an embodiment, the correlation between the decreasing magnitude of the expression level of the LHX4 gene in the tumorous tissue of a patient and the therapeutic effect of Thalidomide on the liver cancer of the patient is indicated by the HCC recurrence of the patient. Specifically, the end date of observation of a patient's HCC recurrence is set as the date three years after the surgery for the liver cancer.
In an embodiment, the 48 patients were divided into two groups according the T/NT ratio to evaluate the therapeutic effect of Thalidomide on the patients. […]
Each of FIGS. 2A, 2B and 2C show the respective 3-year HCC recurrence-free survival days (from the date that the patient underwent the surgery for the liver cancer to the date of observing the HCC recurrence of the patient) of the patients, where the event in the curves is the first HCC recurrence of a patient after the surgery.
In an embodiment, for each of the 48 patients, the LHX4 expression level in the tumorous tissue was obtained through normalizing the quantified result of the western blot of the Lhx4 protein of the tumorous tissue based on a specific amount of β-actin in the tumorous tissue. After the normalization, the LHX4 expression levels in the tumorous tissue of all the patients, normalized by the same amount of β-actin, were obtained. […] Each of FIGS. 3A, 3B and 3C show the respective 3-year HCC recurrence-free survival days (from the date that the patient underwent the surgery for the liver cancer to the date of observing the HCC recurrence of the patient) of the patients, where the event of the curves is the first HCC recurrence in a patient after the surgery.

[3] abbreviates: T/NT ratio < 0.2, 13 total patients.
The mark [4] stands for this setting: T/NT ratio ≧ 0.2, 14 total patients.

The values that follow come from patent publication US20150192565A1, “METHOD FOR EVALUATING THERAPEUTIC EFFECT OF T[…] APPLICATION THEREOF” (NATIONAL TAIWAN UNIVERSITY, priority 2014, published 2015).

Regarding `O=C1CCC(N2C(=O)c3ccccc3C2=O)C(=O)N1` (racemic) [Thalidomide, (RS)-2-(2,6-dioxopiperidin-3-yl)-1H-isoindole-1,3(2H)-dione], in the test on HCC [1], the “two-year HCC recurrence-free survival rate” value is 65%. Further, the “mean 3-year HCC recurrence-free survival days, lower group compared with higher group” value with HCC [2] (groups divided by arithmetic average of LHX4 expression levels in tumorous tissue, patients receiving Thalidomide) is given as “obviously delayed”. Moreover, the “mean 3-year HCC recurrence-free survival days” value is recorded as 466 days in the test with HCC [2] (higher group, LHX4 expression level in tumorous tissue not lower than 0.17 (median), 14 patients, FIG. 3B/3C, P=0.567 vs placebo (535 days)); 521 days with HCC [2] (higher group, T/NT ratio not lower than 0.2, Thalidomide 200 mg/day, 14 patients, FIG. 1B/1C, P=0.687 vs placebo (535 days)); 344 days in the test with HCC [2] (higher group, T/NT ratio not lower than 0.5, 5 patients, FIG. 2B/2C, P=0.272 vs placebo (493 days)); 833 days in the test with HCC [2] (lower group, LHX4 expression level in tumorous tissue lower than 0.17 (median), 13 patients, FIG. 3A/3C, P=0.033 vs placebo (526 days)); 744 days in the test with HCC [2] (lower group, T/NT ratio lower than 0.2, Thalidomide 200 mg/day, 13 patients, FIG. 1A/1C, P=0.06 vs placebo (526 days)); 711 days with HCC [2] (lower group, T/NT ratio lower than 0.5, 22 patients, FIG. 2A/2C, P=0.2 vs placebo (545 days)). The “HCC recurrence rate (%)” value worked out at 38.5% with HCC [2] (setting [3]) and 85.7% in the test with HCC [2] (setting [4]). The “Number of HCC recurrence patients” value is on record as 5 with HCC [2] (setting [3]) and 12 with HCC [2] (setting [4]).
